Values after ≈ are worked out from the molar mass of the structure shown.
Key:
[1] = system: Bacillus pumilus MTCC 1607; assay: MIC by microbroth dilution, Bacillus pumilus MTCC 1607; type: cell-based; details: 37° C., 16-18 hrs; for MIC: MTCC1607, Mueller Hinton Broth, read-out: MIC, in vitro activity, Bp; for MIC, in vitro activity, Bp: Mueller Hinton Broth
Description: (§1) The antibacterial spectrum and potency of a particular compound may be determined in a standard test system.
(§2) The minimum inhibitory concentrations (MIC's) of the compounds for the microorganisms listed in Table A were determined by preparing working solution for each compound of concentration of 128 μg/ml after dissolving it in DMSO. […] 30 μg/ml of Standard suspension of each organism which was prepared with turbidity equivalent to the 1:10 diluted 0.5 McFarland standard with density 10^7 CFU/ml, was added to each well to get approximately a density of 10^5 CFU/ml. These 96-well Tissue culture plate containing the test samples and positive and negative controls, were incubated at 37° C. for 16-18 hrs. The wells were visually inspected for growth and were also read at 630 nm by Automated Microplate Reader [(EL800) Trinity Biotech.] and the MIC's were recorded as the lowest concentration of drug which inhibits the growth of bacteria.
(§3) • Bp: Bacillus pumilus MTCC 1607 • S.e.: Staphylococcus epidermidis MTCC 155 • S.p.: Staphylococcus pyogenes MTCC 442 • S.a.1: Staphylococcus aureus MTCC 96 • S.a.2: Staphylococcus aureus ATCC 14154 • S.a.3: Staphylococcus aureus ATCC 25923 • S.a.4: Staphylococcus aureus ATCC 29213 • E.f.1: Enterococcus faecalis MTCC 439 • E.f.2: Enterococcus faecalis ATCC 14506 • K.0p.: Klebsiella pneumoniae ATCC 10031

[2] = system: Staphylococcus epidermidis MTCC 155; assay: MIC by microbroth dilution, Staphylococcus epidermidis MTCC 155; type: cell-based; details: MTCC155, Mueller Hinton Broth, 37° C., 16-18 hrs, read-out: MIC, in vitro activity, Se
Description: as §1, §2, §3

[3] = system: Staphylococcus aureus MTCC 96; assay: MIC by microbroth dilution, Staphylococcus aureus MTCC 96; type: cell-based; details: 37° C., 16-18 hrs; for MIC: MTCC96, Mueller Hinton Broth, read-out: MIC, in vitro activity, Sa1; for MIC, in vitro activity, Sa1: Mueller Hinton Broth
Description: as §1, §2, §3

[4] = system: Enterococcus faecalis MTCC 439; assay: MIC by microbroth dilution, Enterococcus faecalis MTCC 439; type: cell-based; details: 37° C., 16-18 hrs; for MIC: MTCC439, Mueller Hinton Broth, read-out: MIC, in vitro activity, Ef1
Description: as §1, §2, §3

[5] = system: Pseudomonas aeruginosa ATCC 27853; assay: MIC by microbroth dilution, Pseudomonas aeruginosa ATCC 27853; type: cell-based; details: 37° C., 16-18 hrs; for MIC: ATCC27853, Mueller Hinton Broth, read-out: MIC, in vitro activity, Pa; for MIC, in vitro activity, Pa: Mueller Hinton Broth
Description: as §1, §2
P.a.: Pseudomonas aeruginosa ATCC 27853

[6] = system: Staphylococcus pyogenes MTCC 442; assay: MIC by microbroth dilution, Staphylococcus pyogenes MTCC 442; type: cell-based; details: MTCC442, Mueller Hinton Broth, 37° C., 16-18 hrs, read-out: MIC, in vitro activity, Sp
Description: as §1, §2, §3

[7] = system: Staphylococcus aureus ATCC 14154; assay: MIC by microbroth dilution, Staphylococcus aureus ATCC 14154; type: cell-based; details: ATCC14154, Mueller Hinton Broth, 37° C., 16-18 hrs, read-out: MIC, in vitro activity, Sa2
Description: as §1, §2, §3

[8] = system: Staphylococcus aureus ATCC 25923; assay: MIC by microbroth dilution, Staphylococcus aureus ATCC 25923; type: cell-based; details: ATCC25923, Mueller Hinton Broth, 37° C., 16-18 hrs, read-out: MIC, in vitro activity, Sa3
Description: as §1, §2, §3

[9] = system: Staphylococcus aureus ATCC 29213; assay: MIC by microbroth dilution, Staphylococcus aureus ATCC 29213; type: cell-based; details: ATCC29213, Mueller Hinton Broth, 37° C., 16-18 hrs, read-out: MIC, in vitro activity, Sa4
Description: as §1, §2, §3

[10] = system: Enterococcus faecalis ATCC 14506; assay: MIC by microbroth dilution, Enterococcus faecalis ATCC 14506; type: cell-based; details: ATCC14506, Mueller Hinton Broth, 37° C., 16-18 hrs, read-out: MIC, in vitro activity, Ef2
Description: as §1, §2, §3

MIC [1] | MIC [2] | MIC [3] | MIC [4] | MIC [5] | MIC [6] | MIC [7] | MIC [8] | MIC [9] | MIC [10] | melting point | Structure (SMILES) | MIC, in vitro activity, Bp [1] | MIC, in vitro activity, Sa1 [3] | MIC, in vitro activity, Pa [5] | MIC, in vitro activity, Ef1 ([4]; Mueller Hinton Broth)
≤ 0.12 µg/mL | 0.25 µg/mL (≈ 0.562 µM) | 0.25 µg/mL (≈ 0.562 µM) | 0.25 µg/mL (≈ 0.562 µM) | 16 µg/mL (≈ 36 µM) | – | – | – | – | – | – | COc1c(N2CCc3sc(CO)cc3C2)c(F)cc2c(=O)c(C(=O)O)cn(C3CC3)c12 [Compound 21, 1-Cyclopropyl-6-fluoro-7-(2-hydroxymethyl-6,7-dihydro-4H-thieno[3,2-c]pyridin-5-yl)-8-methoxy-4-oxo-1,4-dihydro-quinoline-3-carboxylic acid] | – | – | – | –
≤ 0.12 µg/mL | ≤ 0.12 µg/mL | ≤ 0.12 µg/mL | ≤ 0.12 µg/mL | 16 µg/mL (≈ 38.6 µM) | ≤ 0.12 µg/mL | ≤ 0.12 µg/mL | 0.5 µg/mL (≈ 1.21 µM) | 0.25 µg/mL (≈ 0.603 µM) | 0.25 µg/mL (≈ 0.603 µM) | 173 to 175 °C | COc1c(N2CCc3sccc3C2)c(F)cc2c(=O)c(C(=O)O)cn(C3CC3)c12 [Compound 13, 1-Cyclopropyl-7-(6,7-dihydro-4H-thieno[3,2-c]pyridin-5-yl)-6-fluoro-8-methoxy-4-oxo-1,4-dihydro-quinoline-3-carboxylic acid] | – | – | – | –
– | – | – | – | – | – | – | – | – | – | – | O=C(O)c1cn(C2CC2)c2c(F)c(N3CCc4sccc4C3)c(F)c(F)c2c1=O [Compound 16, 1-Cyclopropyl-7-(6,7-dihydro-4H-thieno[3,2-c]pyridin-5-yl)-5,6,8-fluoro-4-oxo-1,4-dihydro-quinoline-3-carboxylic acid] | 0.25 µg/mL (≈ 0.595 µM) | 0.25 µg/mL (≈ 0.595 µM) | >64 µg/mL | –
≤ 0.12 µg/mL | ≤ 0.12 µg/mL | ≤ 0.12 µg/mL | ≤ 0.12 µg/mL | 16 µg/mL (≈ 38.3 µM) | ≤ 0.12 µg/mL | ≤ 0.12 µg/mL | 0.5 µg/mL (≈ 1.2 µM) | 0.25 µg/mL (≈ 0.599 µM) | 0.25 µg/mL (≈ 0.599 µM) | – | Nc1c(F)c(N2CCc3sccc3C2)c(F)c2c1c(=O)c(C(=O)O)cn2C1CC1 [Compound 17, 5-Amino-1-cyclopropyl-7-(6,7-dihydro-4H-thieno[3,2-c]pyridin-5-yl)-6,8-difluoro-4-oxo-1,4-dihydro-quinoline-3-carboxylic acid] | – | – | – | –
≤ 0.12 µg/mL | 0.25 µg/mL (≈ 0.565 µM) | ≤ 0.12 µg/mL | ≤ 0.12 µg/mL | 8 µg/mL (≈ 18.1 µM) | 0.25 µg/mL (≈ 0.565 µM) | – | – | – | – | – | COc1c(N2CCc3sc(C=O)cc3C2)c(F)cc2c(=O)c(C(=O)O)cn(C3CC3)c12 [Compound 20, 1-Cyclopropyl-6-fluoro-7-(2-formyl-6,7-dihydro-4H-thieno[3,2-c]pyridin-5-yl)-8-methoxy-4-oxo-1,4-dihydro-quinoline-3-carboxylic acid] | – | – | – | –
– | – | – | – | – | – | – | – | – | – | – | COc1c(N2CCc3occc3C2C)c(F)cc2c(=O)c(C(=O)O)cn(C3CC3)c12 (stereo not drawn) [Compound 23, 1-Cyclopropyl-6-fluoro-8-methoxy-7-(4-methyl-6,7-dihydro-4H-fluoro[3,2-c]pyridin-5-yl)-4-oxo-1,4-dihydro-quinoline-3-carboxylic acid] | ≦0.12 μg/ml | 8 µg/mL (≈ 19.4 µM) | >16 µg/mL | 2 µg/mL (≈ 4.85 µM)
0.25 µg/mL (≈ 0.544 µM) | – | 1 µg/mL (≈ 2.18 µM) | – | – | – | – | – | – | – | – | COc1c(N2CCc3sccc3C2)c(F)c([N+](=O)[O-])c2c(=O)c(C(=O)O)cn(C3CC3)c12 [Compound 15, 1-Cyclopropyl-7-(6,7-dihydro-4H-thieno[3,2-c]pyridin-5-yl)-6-fluoro-8-methoxy-5-nitro-4-oxo-1,4-dihydro-quinoline-3-carboxylic acid] | – | – | – | –
≤ 0.12 µg/mL | ≤ 0.12 µg/mL | 0.25 µg/mL (≈ 0.544 µM) | ≤ 0.12 µg/mL | 1 µg/mL (≈ 2.18 µM) | ≤ 0.12 µg/mL | – | – | – | 0.25 µg/mL (≈ 0.544 µM) | – | COc1c(N2CCc3sc([N+](=O)[O-])cc3C2)c(F)cc2c(=O)c(C(=O)O)cn(C3CC3)c12 [Compound 19, 1-Cyclopropyl-6-fluoro-8-methoxy-7-(2-nitro-6,7-dihydro-4H-thieno[3,2-c]pyridin-5-yl)-4-oxo-1,4-dihydro-quinoline-3-carboxylic acid] | – | – | – | –
≤ 0.12 µg/mL | 0.25 µg/mL (≈ 0.65 µM) | 0.25 µg/mL (≈ 0.65 µM) | – | – | – | 0.25 µg/mL (≈ 0.65 µM) | 0.5 µg/mL (≈ 1.3 µM) | 0.5 µg/mL (≈ 1.3 µM) | – | – | O=C(O)c1cn(C2CC2)c2cc(N3CCc4sccc4C3)c(F)cc2c1=O [Compound 14, 1-Cyclopropyl-7-(6,7-dihydro-4H-thieno[3,2-c]pyridin-5-yl)-6-fluoro-4-oxo-1,4-dihydro-quinoline-3-carboxylic acid] | – | – | – | –
≤ 0.12 µg/mL | ≤ 0.12 µg/mL | ≤ 0.12 µg/mL | 0.5 µg/mL (≈ 1.33 µM) | 4 µg/mL (≈ 10.7 µM) | 0.5 µg/mL (≈ 1.33 µM) | ≤ 0.12 µg/mL | 0.25 µg/mL (≈ 0.666 µM) | 0.12 µg/mL (≈ 0.32 µM) | 0.5 µg/mL (≈ 1.33 µM) | – | COc1c(N2CCNC(C)C2)c(F)cc2c(=O)c(C(=O)O)cn(C3CC3)c12 (stereo not drawn) [Gatifloxacin, gatifloxacin, reference compound] | – | – | – | –
< 0.12 µg/mL | 0.25 µg/mL (≈ 0.754 µM) | 0.25 µg/mL (≈ 0.754 µM) | 0.25 µg/mL (≈ 0.754 µM) | 0.5 µg/mL (≈ 1.51 µM) | 0.5 µg/mL (≈ 1.51 µM) | 0.5 µg/mL (≈ 1.51 µM) | 0.5 µg/mL (≈ 1.51 µM) | 0.25 µg/mL (≈ 0.754 µM) | 0.25 µg/mL (≈ 0.754 µM) | – | O=C(O)c1cn(C2CC2)c2cc(N3CCNCC3)c(F)cc2c1=O [Ciprofloxacin, ciprofloxacin, reference compound] | – | – | – | –
0.5 µg/mL (≈ 1.09 µM) | – | 4 µg/mL (≈ 8.72 µM) | 8 µg/mL (≈ 17.4 µM) | > 16 µg/mL | – | – | – | – | – | – | COc1c(N2CCc3sc(C(=O)O)cc3C2)c(F)cc2c(=O)c(C(=O)O)cn(C3CC3)c12 [Compound 22, 7-(2-carboxy-6,7-dihydro-4H-thieno[3,2-c]pyridin-5-yl)-1-cyclopropyl-6-fluoro-8-methoxy-4-oxo-1,4-dihydro-quinoline-3-carboxylic acid] | – | – | – | –

Reference: patent US20070275994A1, “Novel Antinfective Compounds” (priority 2003, published 2007)
